Reference: patent publication US5318989A, “Cytotoxic bicyclo [7.3.1.]tridec-4-ene-2,6-diyne compounds and process for the preparation thereof” (Bristol-Myers Squibb Company, priority 1992, dated 1994)
≈ marks a conversion by molar mass, not a printed value. Where “and” joins values, the source holds several entries; their conditions need not be identical. Equal entries are not always repeated. Where two headings read alike, the source gives them in different places.

What was measured:
P388 leukemia = assay: In vivo activity against transplantable murine P388 leukemia in CDF1 mice; details: for Survival d.5: day 5; for Med. Survival Time / % T/C: intraperitoneal; for Med. Survival Time: 5 consecutive days from day 1, control 11 d; for % T/C: 5 consecutive days, 125 or greater is significant
Experimental: The compound of Example 4 was also evaluated against transplantable murine P388 leukemia. CDF1 mice were implanted intraperitoneally with a tumor inoculum of 10^6 cells of P388 leukemia and treated with various doses of the test compound Six mice were used for each dose level and 10 mice were treated with saline to serve as control. The test compound was administered intraperitoneally on 5 consecutive days starting on day 1 after tumor implantation. Antitumor activity is expressed as % T/C which is the ratio of mean survival time (MST) for the drug-treated group to the MST of saline-treated control group.
A compound showing a % T/C of 125 or greater is considered to have significant antitumor activity.

DNA = details: J. Org. Chem. 1989, 54:2781-2783; J. Am. Chem. Soc. 1989, 111:7638-7641; cited from earlier work
[1] = test system: HCT-116 human colon tumor cell line; assay: In vitro cytotoxicity assay; assay type: cell-based; details: three determinations
Experimental: (§1) Compound of Example 4 was evaluated in vitro against three human colon tumor cell lines: HCT-116, HCT/VM46, and HCT/VP35; the latter two are resistant to teniposide and etoposide, respectively. The in vitro cytotoxicity assay involved growing tumor cells on microtitre plates employing established tissue culture methods. The concentration of the test compound required to inhibit cell growth by 50% (IC50) was then determined by four-fold serial dilution technique. In the experiment, etoposide and teniposide were included as positive controls.

[2] = test system: HCT/VP35 human colon tumor cell line (etoposide-resistant); assay: In vitro cytotoxicity assay; assay type: cell-based; details: three determinations
Experimental: as §1

[3] = test system: HCT/VM46 human colon tumor cell line (teniposide-resistant); assay: In vitro cytotoxicity assay; assay type: cell-based; details: three determinations
Experimental: as §1

[4] = Homo sapiens, HCT-116, HCT-116, read-out: IC50
[5] = Homo sapiens, HCT/VP35, HCT/VP35, read-out: IC50

1-Hydroxy-8-[[(2-quinoxolyamino)carbonyl]oxy]-bicyclo[7.3.1]trideca-4,7-diene-2,6-divn-13-one [Example 8]
max. %T/C (P388 leukemia; at 15 mg/kg/dose, same protocol): 145%

O=C1CC2C(=O)C(O)(C#CC=CC#CC2O)C1 (centres unmarked) [1,8-dihydroxy-bicyclo[7.3.1]tridec-4-ene-2,6-diyn-11,13-dione]
DNA cleavage in vitro (DNA): shown to cleave DNA in vitro

COc1cc([C@@H]2c3cc4c(cc3[C@@H](O[C@@H]3O[C@@H]5CO[C@@H](C)O[C@H]5[C@H](O)[C@H]3O)[C@H]3COC(=O)[C@H]23)OCO4)cc(OC)c1O [Etoposide]
IC50 ([1]; HCT-116): 0.128 µg/mL and 0.140 µg/mL | IC50 [1, 4]: 0.101 µg/mL (≈ 0.172 µM) | IC50 ([2]; HCT/VP35): 6.29 µg/mL and 6.75 µg/mL | IC50 [2, 5]: 5.14 µg/mL (≈ 8.73 µM)

O=C1C2=CCCC1(O)C#CC=CC#CC2O (centres unmarked) [Example 4, 1,8-Dihydroxy-bicyclo7.3.1]trideca-4,9-diene-2,6-divn-13-one]
IC50 ([1]; HCT-116): 0.037 µg/mL and 0.043 µg/mL and < 0.031 µg/mL | IC50 [3]: < 0.031 µg/mL and 0.047 µg/mL | IC50 ([2]; HCT/VP35): 0.042 µg/mL and 0.046 µg/mL and 0.072 µg/mL | Survival d.5 (P388 leukemia; 1 mg/kg/dose): 6/6 | Med. Survival Time (P388 leukemia; 1 mg/kg/dose): 13 days | % T/C (P388 leukemia; 1 mg/kg/dose): 118% | Survival d.5 (P388 leukemia; 2 mg/kg/dose): 6/6 | Med. Survival Time (P388 leukemia; 2 mg/kg/dose): 16.5 days | % T/C (P388 leukemia; 2 mg/kg/dose): 150% | Survival d.5 (P388 leukemia; 4 mg/kg/dose): 6/6 | Med. Survival Time (P388 leukemia; 4 mg/kg/dose): 20.0 days | % T/C (P388 leukemia; 4 mg/kg/dose): 182% | Survival d.5 (P388 leukemia; 8 mg/kg/dose): 6/6 | number of surviving mice on day 39 (P388 leukemia; 8 mg/kg/dose, day 39): 4 mice | Med. Survival Time (P388 leukemia; 8 mg/kg/dose): > 39 days | % T/C (P388 leukemia; 8 mg/kg/dose): > 355% | Survival d.5 (P388 leukemia; 16 mg/kg/dose): 6/6 | Med. Survival Time (P388 leukemia; 16 mg/kg/dose): 9.5 days | % T/C (P388 leukemia; 16 mg/kg/dose): 86% | Survival d.5 (P388 leukemia; 32 mg/kg/dose): 6/6 | Med. Survival Time (P388 leukemia; 32 mg/kg/dose): 7 days | % T/C (P388 leukemia; 32 mg/kg/dose): 64% | activity against P388 leukemia (P388 leukemia; conclusion from Table II): high activity against P388 leukemia

O=C(OC1C#CC=CC#CC2(O)CCC=C1C2=O)c1cnc2ccccc2n1 (centres unmarked) [Example 6]
mouse surviving on day 31 (P388 leukemia; 20 mg/kg/dose, day 31): one | maximum %T/C (P388 leukemia; at 20 mg/kg/dose, same protocol): 235%

O=C1C2=CCCC1(O)C#C/C=C\C#CC2 (centres unmarked) [Example 15, 1-Hydroxy-bicylco[7.3.1]trideca-4,9-diene-2,6-diyne-13-one]
max. %T/C (P388 leukemia; at 40 mg/kg/dose, same protocol): 230%

COc1cc([C@@H]2c3cc4c(cc3[C@@H](O[C@@H]3O[C@@H]5CO[C@@H](c6cccs6)O[C@H]5[C@H](O)[C@H]3O)[C@H]3COC(=O)[C@H]23)OCO4)cc(OC)c1O [Teniposide]
IC50 ([1]; HCT-116): 0.088 µg/mL and 0.083 µg/mL | IC50 [1, 4]: 0.077 µg/mL (≈ 0.117 µM) | IC50 ([3]; Homo sapiens, read-out: IC50): 0.313 µg/mL (≈ 0.477 µM) | IC50 [3]: 0.237 µg/mL and 0.236 µg/mL | IC50 ([2]; HCT/VP35): 0.091 µg/mL and 0.111 µg/mL | IC50 [2, 5]: 0.084 µg/mL (≈ 0.128 µM)
